Patent US9073925B2, “Azinone-substituted azabicycloalkane-indole and azabicycloalkane-pyrrolo-pyridine MCH-1 antagonists, methods of making, and use thereof” (Albany Molecular Research, Inc., priority 2009, dated 2015)
Where a name gives a salt, the structure may show the parent alone.

These compounds were tested against human MCH-1 receptor (Homo sapiens (Human), UniProt Q99705) (assay: Binding assay for human melanin-concentrating hormone (MCH1) receptor). Settings: membranes from CHO-K1 cells expressing human MCH-1 receptor; 1.4 nM [3H]-labeled radioligand; 60 min at 25° C.; Ki by Cheng Prusoff.
Description: Evaluation of the affinity of compounds for the human MCH-1 receptor was accomplished using 4-(3,4,5-tritritiumbenzyloxy)-1-(1-(2-(pyrrolidin-1-yl)ethyl)-1H-indazol-5-yl)pyridin-2(1H)-one and membranes prepared from stable CHO-K1 cells expressing the human MCH-1 receptor obtained from Euroscreen (Batch 1138). Cell membrane homogenates (8.92 μg protein) were incubated for 60 min at 25° C. with 1.4 nM of the [^3H]-labeled compound in the absence or presence of the test compound in 50 mM Tris-HCl buffer, pH 7.4. Nonspecific binding was determined in the presence of 50 μM 1-(5-(4-cyanophenyl)bicyclo[3.1.0]hexan-2-yl)-3-(4-fluoro-3-(trifluoromethyl)phenyl)-1-(3-(4-methylpiperazin-1-yl)propyl)urea. Following incubation, the samples were filtered rapidly under vacuum through Skatron 11731 filters, pre-soaked in 0.5% polyethylenimine, and washed with ice-cold 50 mM Tris-HCl buffer, pH 7.4, (wash setting 9,9,0) using a Skatron cell harvester. The filters were counted for radioactivity in a liquid scintillation counter (Tri-Carb 2100TR, Packard) using a scintillation cocktail (Ultima Gold MV, Perkin Elmer).
The results are expressed as a percent inhibition of the control radioligand specific binding. The IC50 value (concentration causing a half-maximal inhibition of control specific binding) and Hill coefficient (nH) were determined by non-linear regression analysis of the competition curve using Hill equation curve fitting. The inhibition constant (Ki) was calculated from the Cheng Prusoff equation: (Ki=IC50/(1+(L/KD)), where L=concentration of radioligand in the assay, and KD=affinity of the radioligand for the receptor.

human MCH-1 receptor, sequence (Q99705 whole entry): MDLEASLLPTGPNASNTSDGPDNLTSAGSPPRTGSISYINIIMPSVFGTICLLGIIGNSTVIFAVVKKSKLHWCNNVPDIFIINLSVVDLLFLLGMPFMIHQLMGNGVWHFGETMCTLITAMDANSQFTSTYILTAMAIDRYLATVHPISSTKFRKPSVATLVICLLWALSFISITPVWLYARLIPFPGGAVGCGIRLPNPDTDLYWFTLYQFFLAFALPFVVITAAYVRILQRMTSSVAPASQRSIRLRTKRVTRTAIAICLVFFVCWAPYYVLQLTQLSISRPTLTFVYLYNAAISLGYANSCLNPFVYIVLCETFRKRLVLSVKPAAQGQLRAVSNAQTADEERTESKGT

SMILES | Ki
Cn1c2c(c3ccc(-n4ccc(OCc5ccccc5)cc4=O)cc31)CN1CCC2C1 (stereo not shown) [Example 2, 4-(Benzyloxy)-1-(6-methyl-3,4,5,6-tetrahydro-1H-2,5-methanoazepino[4,3-b]indol-8-yl)pyridin-2(1H)-one hydrochloride] | 6.4 nM
Cn1c2c(c3ccc(-n4ccc(OCc5ccccc5)cc4=O)cc31)CN1CCC2CC1 [Example 3, 4-(Benzyloxy)-1-(6-methyl-3,4,5,6-tetrahydro-1H-2,5-ethanoazepino[4,3-b]indol-8-yl)pyridin-2(1H)-one hydrochloride] | 5.9 nM
Cn1c2c(c3ccc(-n4ccc(OCc5ccc(F)cn5)cc4=O)cc31)CN1CCC2CC1 [Example 4, 4-((5-Fluoropyridin-2-yl)methoxy)-1-(6-methyl-3,4,5,6-tetrahydro-1H-2,5-ethanoazepino[4,3-b]indol-8-yl)pyridin-2(1H)-one hydrochloride] | 44 nM
Cn1c2c(c3ccc(-n4ccc(-c5ccc(C(F)(F)F)nn5)cc4=O)cc31)CN1CCC2CC1 [Example 5, 1-(6-Methyl-3,4,5,6-tetrahydro-1H-2,5-ethanoazepino[4,3-b]indol-8-yl)-4-(6-(trifluoromethyl)pyridazin-3-yl)pyridin-2(1H)-one hydrochloride] | 23 nM
Cn1c2c(c3ccc(-n4ccc(-c5ccc(C(F)(F)F)cn5)cc4=O)cc31)CN1CCC2CC1 [Example 6, 1-(6-Methyl-3,4,5,6-tetrahydro-1H-2,5-ethanoazepino[4,3-b]indol-8-yl)-4-(5-(trifluoromethyl)pyridin-2-yl)pyridin-2(1H)-one hydrochloride] | 123 nM
Cn1c2c(c3ccc(-n4ccc(OCc5ccc(C(F)(F)F)nc5)cc4=O)cc31)CN1CCC2CC1 [Example 7, 1-(6-Methyl-3,4,5,6-tetrahydro-1H-2,5-ethanoazepino[4,3-b]indol-8-yl)-4-((6-(trifluoromethyl)pyridin-3-yl)methoxy)pyridin-2(1H)-one hydrochloride] | 11 nM
Cn1c2c(c3ccc(-n4ccc(OCc5ccccc5)cc4=O)nc31)CN1CCC2CC1 [Example 8, 4-(Benzyloxy)-1-(10-methyl-7,8,9,10-tetrahydro-5H-6,9-ethanopyrido[3′,2′:4,5]pyrrolo[3,2-c]azepin-2-yl)pyridin-2(1H)-one hydrochloride] | 29 nM
Cn1c2c(c3ccc(-n4ccc(OCc5ccc(F)cc5F)cc4=O)nc31)CN1CCC2CC1 [Example 9, 4-(2,4-Difluorobenzyloxy)-1-(10-methyl-7,8,9,10-tetrahydro-5H-6,9-ethanopyrido[3′,2′:4,5]pyrrolo[3,2-c]azepin-2-yl)pyridin-2(1H)-one hydrochloride] | 15 nM
Cn1c2c(c3ccc(-n4ccc(-c5ccc(C(F)(F)F)cc5)cc4=O)nc31)CN1CCC2CC1 [Example 10, 1-(10-Methyl-7,8,9,10-tetrahydro-5H-6,9-ethanopyrido[3′,2′:4,5]pyrrolo[3,2-c]azepin-2-yl)-4-(4-(trifluoromethyl)phenyl)pyridin-2(1H)-one hydrochloride] | 15 nM
Cn1c2c(c3ccc(-n4ccc(OCc5ccc(F)cn5)cc4=O)nc31)CN1CCC2CC1 [Example 11, 4-((5-Fluoropyridin-2-yl)methoxy)-1-(10-methyl-7,8,9,10-tetrahydro-5H-6,9-ethanopyrido[3′,2′:4,5]pyrrolo[3,2-c]azepin-2-yl)pyridin-2(1H)-one hydrochloride] | 25 nM
